Series [1] relates to Plasmodium berghei NK65 strain. In words: in vivo treatment test by oral administration into mouse infected with malaria. The following applies: for Cure rate (%) / life-elongation effect: oral; for Cure rate (%): 5 days after infection. As for the experimental part:
This test was carried out in accordance with 4-day suppressive test that is a general in vivo test for the activity of an anti-malaria compound. Rodent malaria protozoa (Plasmodium berghei NK65 strain) were used in this test. Infected blood was prepared by infection with intraperitoneal administration into ICR male mouse (5 weeks age; SPF) and passage culture (subculture) thereafter. Blood was drawn from the vein of a tail of the moue infected with malaria, and its infection ratio was determined. After it was confirmed that the infection ratio had been increased up to an appropriated level (10˜20%), the blood infected with malaria was drawn from the heart of the mouse. The infection ratio and number (cells/mL) of erythrocytes were determined. An uninfected mouse (ICR male, 5 weeks age) was then infected with an injection of the infected erythrocytes so diluted with PBS as to comprise the protozoa of […] per dose (0.2 mL) into the vein of its tail.
A test sample was prepared by dissolving the test compounds according to the present invention into physiologic saline (Otsuka Pharmaceuticals Industries) to a predetermined concentration. In the case where the compound was insoluble in water, it was dissolved into DMSO or Tween 20 to prepare the test sample. A control group (no drug-administration group) was treated only with physiologic saline. Weight of the mouse was determined so that a dose would comprise 5.0 mg per 1 kg of its weight.
One group consisted of five mice. The intraperitoneal administration of the test sample started after two hours from the infection with malaria and continued for successive 4 days with a 24-hour interval. After 24 hours from the last administration, blood was drawn from the tail of the infected mouse to prepare a thin-layer smear, and the number of the erythrocytes infected with the malaria protozoa under a microscope with respect to the control group and the test sample groups. Parasitemia, i.e., the infection ratio with the malaria protozoa, was obtained by calculating an average value of the medium three mice except the two mice showing a maximum or minimum inhibition level. A cure rate (suppression) was then calculated from the resulting parasitemia in accordance with the following equation.
Cure rate: suppression (%)=(b−a)/b×100 • a: Infection ratio of the test sample group; and • b: Infection ratio of the control group.
The cure rate (%) of the mice after 5 days from the infection with malaria and the treatment with A-1 (60% purity) according to Example 5 (25-100 mg/kg/day, through the oral administration) were shown in TABLE 6. The oral administration, starting after two hours from the infection with malaria, consisted of four times with a 24-hour interval, 12 times with 8-hour interval or single dose.
The cure rate (%) of the mice after 5 days from the infection with malaria and the treatment with A-1 (100 mg/kg/day, through the oral administration of four times with a 24-hour interval or singe dose) were shown in TABLE 7.

Series [2] can be described thus: in vitro growth-inhibiting assay of rat L6 cells. It counts as cell-based. The following applies: rat, L6 cells (rat skeletal myoblast cells); Table 3; 72 h, Alamar Blue; read-out: 50% growth-inhibiting concentration (nM) cytotoxicity L6. For orientation: Resazurin is reduced to fluorescent resorufin, in cell work by metabolically active cells.

Results on three compounds are retold here after patent publication US20090036437A1, “PHARMACEUTICAL COMPOSITION COMPRISING PHENOXAZINIUM COMPOUND AS AN ACTIVE INGREDIENT” (priority 2005, published 2009).

Marks after values point to notes of the source that are not given here.

As to `CCN(CC)c1ccc2nc3ccc(=[N+](CC)CC)cc-3oc2c1.[Cl-]` [A-1 (60% purity)], the “mice still alive after 30 days” value in series [1] (oral 100 mg/kg four times with a 24-hour interval, one mouse died on day 21) is listed as “three mice of the four mice”. In addition, in series [1] (oral 100 mg/kg four times with a 24-hour interval, three surviving mice), the “presence of the protozoa of malaria in blood of surviving mice after 36 days” value is on record as “No protozoa of malaria was shown to be present in the blood”. Also, the “Cure rate (%)” value in series [1] (12 times with 8-hour interval, 15 mg/kg/dose) is reported as over 99.99%; in series [1] (four times with a 24-hour interval, 25 mg/kg/dose), 82.3%; in series [1] (four times with a 24-hour interval, 50 mg/kg/dose), 98.6%; in series [1] (four times with a 24-hour interval, 90 mg/kg/dose), over 99.99%; in series [1] (four times with a 24-hour interval, 100 mg/kg/dose, one of five mice died due to technical error) it was >99.99* %; in series [1] (single administration, 100 mg/kg/dose), over 99.99%. Moreover, the life-elongation effect result in series [1] (all treatments of Table 6) is “significant life-elongation effect”.
For `CCN(CC)c1ccc2nc3ccc(=[N+](CC)CC)cc-3oc2c1.[Cl-]` [A-1 (>95% purity)], the “Cure rate (%)” value in series [1] (Table 7, four times with 24-hour interval, 100 mg/kg/dose) was over 99.99%; in series [1] (Table 7, single administration, 100 mg/kg/dose), 78.3%. The life-elongation effect result in series [1] (all treatments of Table 7) is “significant life-elongation effect”.
As for `CC[N+](CC)=c1ccc2nc3ccc(N(C)C)cc3oc-2c1` [Compound A-4], the EC50 at 72 h in series [2] is 4690 nM.
